In patent US7709511B2, “Benzothiazolone derivatives” (AstraZeneca AB, priority 2005, dated 2010):
Structures can show the parent of a compound that is named as a salt.

Legend:
[1] = molecular target: T1, recombinant human Dopamine Subtype D2s receptors (Homo sapiens, UniProt P14416); experiment: Dopamine D2 selectivity assay, inhibition of [3H]-spiperone binding to membranes; conditions: [3H]-spiperone 0.16 nM; read-out: D2 bind pIC50 (converted)
T1 construct: purchased Perkin Elmer
Protocol: Membranes containing recombinant human Dopamine Subtype D2s receptors were obtained from Perkin Elmer. These were diluted in Assay Buffer (50 mM HEPES, 1 mM EDTA, 120 mM NaCl, 0.1% gelatin, pH 7.4) to provide a final concentration of membranes that gave a clear window between maximum and minimum specific binding.
(§1) Assays were performed in U-bottomed 96-well polypropylene plates. 30 μL [^3H]-spiperone (0.16 nM final concentration) and 30 μL of test compound (10× final concentration) were added to each test well. For each assay plate 8 replicates were obtained for [^3H]-spiperone binding in the presence of 30 μL vehicle (10% (v/v) DMSO in Assay Buffer; defining maximum binding) or 30 μL Haloperidol (10 μM final concentration; defining non-specific binding (NSB)). Membranes were then added to achieve a final volume of 300 μL. The plates were incubated for 2 hours at room temperature and then filtered onto PEI coated GF/B filter plates, pre-soaked for 1 hour in Assay Buffer, using a 96-well plate Tomtec cell harvester. Five washes with 250 μL wash buffer (50 mM HEPES, 1 mM EDTA, 120 mM NaCl, pH 7.4) were performed at 4° C. to remove unbound radioactivity. The plates were dried then sealed from underneath using Packard plate sealers and MicroScint-O (50 μL) was added to each well. The plates were sealed (TopSeal A) and filter-bound radioactivity was measured with a scintillation counter (TopCount, Packard BioScience) using a 3-minute counting protocol.
(§2) Total specific binding (B0) was determined by subtracting the mean NSB from the mean maximum binding. NSB values were also subtracted from values from all other wells. […] Data was fitted to a four parameter logistic equation to determine the compound potency, which was expressed as pIC50 (negative log molar concentration inducing 50% inhibition of [^3H]-spiperone binding).

[2] = molecular target: T2, recombinant human α1D receptor (Homo sapiens, UniProt P25100); experiment: Adrenergic α1D selectivity assay, inhibition of [3H]-prazosin binding to membranes; conditions: HEK293 membranes, [3H]-prazosin 0.3 nM; read-out: α1 bind pIC50 (converted)
T2 construct: made in house; host or cells: HEK293 cells (membranes)
T2 sequence (P25100 1-572): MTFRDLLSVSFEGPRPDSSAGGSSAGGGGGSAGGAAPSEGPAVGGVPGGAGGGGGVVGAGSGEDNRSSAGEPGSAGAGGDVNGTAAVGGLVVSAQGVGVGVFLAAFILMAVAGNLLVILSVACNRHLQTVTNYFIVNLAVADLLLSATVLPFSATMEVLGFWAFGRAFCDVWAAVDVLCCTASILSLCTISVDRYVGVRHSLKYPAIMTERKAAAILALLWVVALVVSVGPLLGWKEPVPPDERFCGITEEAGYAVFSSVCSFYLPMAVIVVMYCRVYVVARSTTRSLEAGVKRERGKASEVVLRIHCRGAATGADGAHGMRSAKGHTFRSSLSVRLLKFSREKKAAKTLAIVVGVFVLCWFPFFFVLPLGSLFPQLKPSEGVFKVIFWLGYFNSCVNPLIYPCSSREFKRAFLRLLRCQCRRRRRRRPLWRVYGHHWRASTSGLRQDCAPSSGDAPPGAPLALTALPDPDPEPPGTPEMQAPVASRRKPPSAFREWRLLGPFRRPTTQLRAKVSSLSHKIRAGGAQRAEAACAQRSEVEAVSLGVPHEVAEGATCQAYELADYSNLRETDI
Protocol: Membranes were prepared from human embryonic kidney 293 (HEK293) cells expressing recombinant human α1D receptor. These were diluted in Assay Buffer (50 mM HEPES, 1 mM EDTA, 0.1% gelatin, pH 7.4) to provide a final concentration of membranes that gave a clear window between maximum and minimum specific binding.
as §1, with “10” for “30”, “[^3H]-prazosin (0.3” for “[^3H]-spiperone (0.16”, “[^3H]-prazosin” for “[^3H]-spiperone”, “BMY7378” for “Haloperidol”, “100” for “300”, “EDTA,” for “EDTA, 120 mM NaCl,”
as §2, with “[^3H]-prazosin” for “[^3H]-spiperone”

T1 sequence (P14416 1-414 isoform P14416-2): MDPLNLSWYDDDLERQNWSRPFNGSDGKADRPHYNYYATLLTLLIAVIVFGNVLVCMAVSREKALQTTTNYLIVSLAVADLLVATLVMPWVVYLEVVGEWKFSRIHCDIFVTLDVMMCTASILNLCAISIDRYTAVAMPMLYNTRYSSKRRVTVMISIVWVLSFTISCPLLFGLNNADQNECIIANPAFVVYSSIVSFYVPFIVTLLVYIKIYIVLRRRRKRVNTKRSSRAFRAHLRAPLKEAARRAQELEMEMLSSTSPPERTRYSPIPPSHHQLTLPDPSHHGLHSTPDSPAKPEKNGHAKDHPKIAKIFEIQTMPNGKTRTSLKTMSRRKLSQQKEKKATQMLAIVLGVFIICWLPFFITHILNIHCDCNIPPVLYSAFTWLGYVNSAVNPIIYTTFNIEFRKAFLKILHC

Row | SMILES | IC50 [1] [nM] | IC50 [2] [nM]
1 | CCN(CC)CCN(CCNCCc1ccc(O)c2[nH]c(=O)sc12)C(=O)CCOCCc1ccc(Cl)cc1 [Example 26, 3-[2-(4-Chlorophenyl)ethoxy]-N-(2-diethylaminoethyl)-N-{2-[2-(4-hydroxy-2-oxo-2,3-dihydro-1,3-benzothiazol-7-yl)ethylamino]ethyl}propanamide dihydrobromide] | 1260 | 3160
2 | CCN(CC)CCN(CCNCCc1ccc(O)c2[nH]c(=O)sc12)C(=O)CCOCCc1cccc(C)c1 [Example 28, N-[2-(Diethylamino)ethyl]-N-(2-{[2-(4-hydroxy-2-oxo-2,3-dihydro-1,3-benzothiazol-7-yl)ethyl]amino}ethyl)-3-[2-(3-methylphenyl)ethoxy]propanamide] | 1000 | 1260
